# Reference: patent US4331670A (priority 1979, dated 1982)
# How the values were obtained:
# [1] = test system: Pyricularia orzae; experiment: whole plant or invertebrate; assay type: in vivo, Pyricularia orzae (rice plant, Chukyo Asahi); details: in Oryza sativa, 120 h, read-out: Protective value
# [2] = test system: Rhizoctonia solani; experiment: whole plant or invertebrate; assay type: in vivo, Rhizoctonia solani (rice plant, Chukyo Asahi); details: in Oryza sativa, 120 h, read-out: Preventive value
# [3] = test system: Botrytis cinerea; experiment: Test 9: protective value on cucumber inoculated with Botrytis cinerea; assay type: in vivo, Botrytis cinerea (cucumber plant, Suyo); details: 72 h, 250 ppm, 10 ml sprayed, lesion length three days after inoculation
# Experimental: In each unglazed pot having a diameter of 9 cm, cucumber plant (Suyo) was cultured. At one leaf stage, 10 ml. of each solution of each active ingredient having a concentration of 250 ppm was sprayed by a spray gun. After maintaining the pot in a green-house at 24° to 25° C. for one day, a disc (punched agar disc) obtained by culturing Botrytis cinerea on a potato-glucose-agar medium (PDA medium) was put on the leaf of cucumber to inoculate them. Three days after the inoculation, lengths of lesions were measured and each protective value was calculated as Test 2.
# In accordance with the test, except the concentration of the active ingredient was decreased, the comparative tests of Compound No. 7 and Reference compound were carried out.
# [4] = test system: Plutella xylostella; experiment: Test 11: mortality of larvae of Plutella xylostella on treated cabbage leaf; assay type: in vivo; details: foliar, 192 h, leaf dipped, emulsifiable concentrate Composition No. 3, eight days, read-out: Percent mortality
# Description: Each emulsifiable concentrate of each active ingredient as Composition No. 3 was dispersed in water at a concentration of 800 ppm. Each leaf of cabbage was dipped into each emulsion for about 10 seconds and taken up and dried in air.
# A wet filter paper was put in each Petri dish (diameter of 9 cm), and each treated leaf was put on the filter paper. Larvae of Plutella xylostella at 2nd to 3rd instar were charged and the dish was covered with a cap and kept in a constant temperature chamber with lighting at 28° C. Eight days after the charge, mortality was measured and each percent mortality was calculated.
structure (smiles),measurement,setting,value
O=[N+]([O-])c1cc(C(F)(F)F)cc([N+](=O)[O-])c1Nc1ccc(Cl)cn1 [Compound No. 1],pest or weed control at 100 ppm,[1],91%
O=[N+]([O-])c1cc(C(F)(F)F)c(Cl)c([N+](=O)[O-])c1Nc1cc(Cl)cc(Cl)n1 [Compound No. 6],pest or weed control at 100 ppm,[2],100%
COc1ccc(Nc2c([N+](=O)[O-])cc(C(F)(F)F)cc2[N+](=O)[O-])c(OC)n1 [Compound No. 25],pest or weed control at 100 ppm,[1],85%
O=[N+]([O-])c1cc(C(F)(F)F)c(Cl)c([N+](=O)[O-])c1Nc1ccc(Cl)cn1 [compound 5],pest or weed control at 100 ppm,[1],100%
Cc1nc(Nc2c([N+](=O)[O-])cc(C(F)(F)F)cc2[N+](=O)[O-])c(Cl)c(C)c1Cl [compound 9],pest or weed control at 100 ppm,[1],83%
Cc1cc(Nc2c([N+](=O)[O-])cc(C(F)(F)F)c(Cl)c2[N+](=O)[O-])ncc1Br [compound 10],pest or weed control at 100 ppm,[1],86%
Cc1nc(Nc2c([N+](=O)[O-])cc(C(F)(F)F)c(Cl)c2[N+](=O)[O-])c(Cl)c(C)c1Cl [compound 11],pest or weed control at 100 ppm,[1],84%
Cc1c(Cl)cnc(Nc2c([N+](=O)[O-])cc(C(F)(F)F)cc2[N+](=O)[O-])c1Cl [compound 13],pest or weed control at 100 ppm,[1],92%
O=[N+]([O-])c1cc(C(F)(F)F)c(Cl)c([N+](=O)[O-])c1Nc1ncc(Br)cc1Br [compound 17],pest or weed control at 100 ppm,[1],100%
same,pest or weed control at 250 ppm,[3],92%
O=[N+]([O-])c1cc(C(F)(F)F)c(Cl)c([N+](=O)[O-])c1Nc1ncc(Cl)cc1Br [compound 18],pest or weed control at 100 ppm,[1],100%
same,pest or weed control at 100 ppm,[2],100%
same,pest or weed control at 250 ppm,[3],100%
O=[N+]([O-])c1cc(C(F)(F)F)c(Cl)c([N+](=O)[O-])c1Nc1ccc(C(F)(F)F)cn1 [compound 19],pest or weed control at 100 ppm,[1],100%
same,pest or weed control at 100 ppm,[2],100%
same,pest or weed control at 250 ppm,[3],100%
CCc1nc(Nc2c([N+](=O)[O-])cc(C(F)(F)F)c(Cl)c2[N+](=O)[O-])ccc1Br [compound 23],pest or weed control at 100 ppm,[1],93%
same,pest or weed control at 250 ppm,[3],81%
CCc1nc(Nc2c([N+](=O)[O-])cc(C(F)(F)F)cc2[N+](=O)[O-])ccc1Br [compound 24],pest or weed control at 100 ppm,[1],90%
O=[N+]([O-])c1cc(C(F)(F)F)c(Cl)c([N+](=O)[O-])c1Nc1ncc(Br)cc1C(F)(F)F [compound 30],pest or weed control at 100 ppm,[1],100%
same,pest or weed control at 100 ppm,[2],95%
same,pest or weed control at 250 ppm,[3],100%
O=[N+]([O-])c1cc(C(F)(F)F)c(Cl)c([N+](=O)[O-])c1Nc1nc(Cl)c(C(F)(F)F)cc1Cl [compound 35],pest or weed control at 100 ppm,[1],95%
same,pest or weed control at 100 ppm,[2],100%
same,pest or weed control at 250 ppm,[3],100%
O=[N+]([O-])c1cc(C(F)(F)F)c(F)c([N+](=O)[O-])c1Nc1ncc(C(F)(F)F)cc1Cl [compound 38],pest or weed control at 100 ppm,[1],100%
CC(C)Oc1c(C(F)(F)F)cc([N+](=O)[O-])c(Nc2ncc(C(F)(F)F)cc2Cl)c1[N+](=O)[O-] [compound 42],pest or weed control at 100 ppm,[1],95%
same,pest or weed control at 100 ppm,[2],95%
same,mortality at 800 ppm,[4],100%
CCCCOc1c(C(F)(F)F)cc([N+](=O)[O-])c(Nc2ncc(C(F)(F)F)cc2Cl)c1[N+](=O)[O-] [compound 43],pest or weed control at 100 ppm,[1],95%
same,pest or weed control at 100 ppm,[2],95%
same,mortality at 800 ppm,[4],100%
CC(C)COc1c(C(F)(F)F)cc([N+](=O)[O-])c(Nc2ncc(C(F)(F)F)cc2Cl)c1[N+](=O)[O-] [compound 44],pest or weed control at 100 ppm,[1],95%
same,pest or weed control at 100 ppm,[2],95%
CSc1c(C(F)(F)F)cc([N+](=O)[O-])c(Nc2ncc(C(F)(F)F)cc2Cl)c1[N+](=O)[O-] [compound 45],pest or weed control at 100 ppm,[1],100%
same,pest or weed control at 100 ppm,[2],100%
CCSc1c(C(F)(F)F)cc([N+](=O)[O-])c(Nc2ncc(C(F)(F)F)cc2Cl)c1[N+](=O)[O-] [compound 46],pest or weed control at 100 ppm,[1],95%
O=[N+]([O-])c1cc(C(F)(F)F)c(O)c([N+](=O)[O-])c1Nc1ncc(C(F)(F)F)cc1Cl [compound 47],pest or weed control at 100 ppm,[1],95%
same,pest or weed control at 100 ppm,[2],95%
O=[N+]([O-])c1cc(C(F)(F)F)c(Oc2ccccc2O)c([N+](=O)[O-])c1Nc1ncc(C(F)(F)F)cc1Cl [compound 48],pest or weed control at 100 ppm,[2],100%
same,pest or weed control at 250 ppm,[3],100%
O=[N+]([O-])c1cc(C(F)(F)F)c(Oc2cccc(O)c2)c([N+](=O)[O-])c1Nc1ncc(C(F)(F)F)cc1Cl [compound 50],pest or weed control at 100 ppm,[2],100%
same,pest or weed control at 250 ppm,[3],100%
O=[N+]([O-])c1cc([N+](=O)[O-])c(Nc2ccc(I)cn2)c(C(F)(F)F)c1 [compound 53],mortality at 800 ppm,[4],100%
O=[N+]([O-])c1cc([N+](=O)[O-])c(Nc2cccnc2Cl)c(C(F)(F)F)c1 [compound 55],mortality at 800 ppm,[4],100%
Cc1ccnc(Nc2c([N+](=O)[O-])cc([N+](=O)[O-])cc2C(F)(F)F)c1 [compound 56],mortality at 800 ppm,[4],100%
O=[N+]([O-])c1cc([N+](=O)[O-])c(Nc2ccc(C(F)(F)F)cn2)c(C(F)(F)F)c1 [compound 57],mortality at 800 ppm,[4],100%
O=[N+]([O-])c1cc([N+](=O)[O-])c(Nc2cccnc2)c(C(F)(F)F)c1 [compound 58],mortality at 800 ppm,[4],100%
O=[N+]([O-])c1cc([N+](=O)[O-])c(Nc2ccncc2)c(C(F)(F)F)c1 [compound 59],mortality at 800 ppm,[4],100%
Cc1cnc(Nc2c([N+](=O)[O-])cc([N+](=O)[O-])cc2C(F)(F)F)c(Br)c1 [compound 64],pest or weed control at 50 ppm,[1],100%
same,pest or weed control at 100 ppm,[2],100%
same,mortality at 800 ppm,[4],100%
CCc1nc(Nc2c([N+](=O)[O-])cc([N+](=O)[O-])cc2C(F)(F)F)ccc1I [compound 67],pest or weed control at 50 ppm,[1],100%
same,mortality at 800 ppm,[4],100%
Cc1nc(Nc2c([N+](=O)[O-])cc([N+](=O)[O-])cc2C(F)(F)F)c(Cl)cc1Cl [compound 68],pest or weed control at 50 ppm,[1],100%
same,pest or weed control at 100 ppm,[2],100%
same,mortality at 800 ppm,[4],100%
Cc1nc(Nc2c([N+](=O)[O-])cc([N+](=O)[O-])cc2C(F)(F)F)ccc1Cl [compound 69],pest or weed control at 50 ppm,[1],100%
O=[N+]([O-])c1cc([N+](=O)[O-])c(Nc2cc(Cl)cc(Cl)n2)c(C(F)(F)F)c1 [compound 72],pest or weed control at 100 ppm,[2],100%
Cc1cc(Cl)cc(Nc2c([N+](=O)[O-])cc([N+](=O)[O-])cc2C(F)(F)F)n1 [compound 73],pest or weed control at 100 ppm,[2],87%
"COc1ccc(Nc2c([N+](=O)[O-])cc([N+](=O)[O-])cc2C(F)(F)F)nc1 [compound 74, N-(5-methoxy-2-pyridyl)-2,4-dinitro-6-trifluoromethylaniline]",pest or weed control at 100 ppm,[2],93%
same,mortality at 800 ppm,[4],100%
O=[N+]([O-])c1cc([N+](=O)[O-])c(Nc2ccc(Cl)nc2Cl)c(C(F)(F)F)c1 [compound 75],pest or weed control at 50 ppm,[1],100%
same,pest or weed control at 100 ppm,[2],100%
O=[N+]([O-])c1cc([N+](=O)[O-])c(Nc2nc(Cl)ccc2C(F)(F)F)c(C(F)(F)F)c1 [compound 76],pest or weed control at 50 ppm,[1],100%
same,pest or weed control at 100 ppm,[2],100%
Cc1c(Cl)cnc(Nc2c([N+](=O)[O-])cc([N+](=O)[O-])cc2C(F)(F)F)c1Cl [compound 78],pest or weed control at 50 ppm,[1],100%
same,pest or weed control at 100 ppm,[2],100%
O=[N+]([O-])c1cc([N+](=O)[O-])c(Nc2c(Cl)cncc2Cl)c(C(F)(F)F)c1 [compound 79],pest or weed control at 100 ppm,[2],90%
O=[N+]([O-])c1cc([N+](=O)[O-])c(Nc2ncc(C(F)(F)F)cc2Br)c(C(F)(F)F)c1 [compound 80],pest or weed control at 50 ppm,[1],100%
same,pest or weed control at 100 ppm,[2],100%
O=[N+]([O-])c1cc([N+](=O)[O-])c(Nc2nc(Cl)c(Br)cc2C(F)(F)F)c(C(F)(F)F)c1 [compound 82],pest or weed control at 50 ppm,[1],100%
O=[N+]([O-])c1cc([N+](=O)[O-])c(Nc2ncc(Cl)cc2C(F)(F)F)c(C(F)(F)F)c1 [compound 83],pest or weed control at 50 ppm,[1],100%
same,mortality at 800 ppm,[4],100%
O=[N+]([O-])c1cc([N+](=O)[O-])c(Nc2ncc(Br)cc2C(F)(F)F)c(C(F)(F)F)c1 [compound 84],pest or weed control at 50 ppm,[1],100%
"COc1c([N+](=O)[O-])cc(C(F)(F)F)c(Nc2ncc(C(F)(F)F)cc2Cl)c1[N+](=O)[O-] [compound 85, N-(3-chloro-5-trifluoromethyl-2-pyridyl)-2,4-dinitro-3-methoxy-6-trifluoromethylaniline]",pest or weed control at 50 ppm,[1],100%
same,pest or weed control at 100 ppm,[2],100%
COc1c([N+](=O)[O-])cc(C(F)(F)F)c(Nc2ncc(Cl)cc2Cl)c1[N+](=O)[O-] [compound 86],pest or weed control at 50 ppm,[1],100%
same,pest or weed control at 100 ppm,[2],100%
Cc1cc(Nc2c([N+](=O)[O-])cc([N+](=O)[O-])cc2C(F)(F)F)ncc1Br [compound 87],pest or weed control at 50 ppm,[1],100%
same,pest or weed control at 100 ppm,[2],100%
same,mortality at 800 ppm,[4],100%
O=[N+]([O-])c1cc(C(F)(F)F)cc(C(F)(F)F)c1Nc1ccc(C(F)(F)F)c(Cl)n1 [compound 92],pest or weed control at 50 ppm,[1],100%
